What follows are molecules tested on HBV (assay: HepAD38 anti-HBV assay: reduction of viral product accumulation (virion DNA qPCR, HBsAg/HBeAg ELISA)). Conditions: Hepatitis B virus, 120 h; HepAD38 cells; concentration reducing viral product accumulation by 50% relative to no drug controls; harvest five days after compound addition; read-out: HepAD38 EC50.
Assay type: cell-based
How it was run: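 EC50 values reflect 50% reduction, relative to untreated controls, in virion DNA (qPCR) or HBsAg/HBeAg (ELISA) from lysates or supernatants. Washed HepAD38 cells without tetracycline were exposed to compound for 5 days. In the 8-day variant, medium and compound were renewed on days 2 and 5.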

SMILES | EC50
CC(C)(O)[C@H]1CCCN1S(=O)(=O)N[C@H]1CC2=C(c3ccn(C(F)F)n3)[C@H](c3ccc(F)cc3Cl)N=C(c3nccs3)N2C1 [Example 284] | < 0.1 µM
O=S(=O)(N[C@H]1CC2=C(c3ccn(C(F)F)n3)[C@H](c3ccc(F)cc3Cl)N=C(c3nccs3)N2C1)N1CCC2(CC2)C1 [Example 286] | < 0.1 µM
O=S(=O)(N[C@H]1CC2=C(c3ccn(C(F)F)n3)[C@H](c3ccc(F)cc3Cl)N=C(c3nccs3)N2C1)N1CCCC1c1ccccn1 (stereo partly shown) [Example 288] | < 0.1 µM
CC1CCC(C)N1S(=O)(=O)N[C@H]1CC2=C(c3ccn(C(F)F)n3)[C@H](c3ccc(F)cc3Cl)N=C(c3nccs3)N2C1 (stereo partly shown) [Example 291] | < 0.1 µM
CC1(C)CCCN(S(=O)(=O)N[C@H]2CC3=C(c4ccn(C(F)F)n4)[C@H](c4ccc(F)cc4Cl)N=C(c4nccs4)N3C2)C1 [Example 292] | < 0.1 µM
CC1(C)CCCCN1S(=O)(=O)N[C@H]1CC2=C(c3ccn(C(F)F)n3)[C@H](c3ccc(F)cc3Cl)N=C(c3nccs3)N2C1 [Example 295] | < 0.1 µM
O=S(=O)(N[C@H]1CC2=C(c3ccn(C(F)F)n3)[C@H](c3ccc(F)cc3Cl)N=C(c3nccs3)N2C1)C1CC(OCc2ccccc2)C1 (stereo partly shown) [Example 296] | < 0.1 µM
O=S(=O)(CCCC(O)c1ccccn1)N[C@H]1CC2=C(c3ccn(C(F)F)n3)[C@H](c3ccc(F)cc3Cl)N=C(c3nccs3)N2C1 (stereo partly shown) [Example 297] | 0.1 to 0.4 µM
O=S(=O)(C[C@@H]1CC2=C(c3ccn(C(F)F)n3)[C@H](c3ccc(F)cc3Cl)N=C(c3nccs3)N2C1)N1CCCCC1 [Example 298] | 0.1 to 0.4 µM
C[C@@H]1CN(S(=O)(=O)N[C@H]2CC3=C(c4ccn(C(F)F)n4)[C@H](c4ccc(F)cc4Cl)N=C(c4nccs4)N3C2)C[C@@H]1C [Example 299] | < 0.1 µM
C[C@H]1CN(S(=O)(=O)N[C@H]2CC3=C(c4ccn(C(F)F)n4)[C@H](c4ccc(F)cc4Cl)N=C(c4nccs4)N3C2)C[C@@H]1C [Example 300] | < 0.1 µM
O=S(=O)(NCc1ccccc1)N[C@H]1CC2=C(c3ccn(C(F)F)n3)[C@H](c3ccc(F)cc3Cl)N=C(c3nccs3)N2C1 [Example 305] | 0.1 to 0.4 µM
O=S(=O)(NCc1ccccn1)N[C@H]1CC2=C(c3ccn(C(F)F)n3)[C@H](c3ccc(F)cc3Cl)N=C(c3nccs3)N2C1 [Example 306] | 0.1 to 0.4 µM
O=S(=O)(NCc1nccs1)N[C@H]1CC2=C(c3ccn(C(F)F)n3)[C@H](c3ccc(F)cc3Cl)N=C(c3nccs3)N2C1 [Example 307] | < 0.1 µM
O=S(=O)(NCC(O)c1ccccn1)N[C@H]1CC2=C(c3ccn(C(F)F)n3)[C@H](c3ccc(F)cc3Cl)N=C(c3nccs3)N2C1 (stereo partly shown) [Example 308] | < 0.1 µM
CC(=O)OCCCS(=O)(=O)N[C@H]1CC2=C(c3ccn(C(F)F)n3)[C@H](c3ccc(F)cc3Cl)N=C(c3nccs3)N2C1 [Example 310] | < 0.1 µM
CC(=O)OCCCS(=O)(=O)N([C@H]1CC2=C(c3ccn(C(F)F)n3)[C@H](c3ccc(F)cc3Cl)N=C(c3nccs3)N2C1)S(=O)(=O)CCCOC(C)=O [Example 311] | < 0.1 µM
O=S(=O)(NCc1ncc[nH]1)N[C@H]1CC2=C(c3ccn(C(F)F)n3)[C@H](c3ccc(F)cc3Cl)N=C(c3nccs3)N2C1 [Example 314] | 0.1 to 0.4 µM
CC(C)(CNS(=O)(=O)N[C@H]1CC2=C(c3ccn(C(F)F)n3)[C@H](c3ccc(F)cc3Cl)N=C(c3nccs3)N2C1)c1ccccn1 [Example 315] | 0.1 to 0.4 µM
O=S(=O)(NCC1(c2ccccn2)CC1)N[C@H]1CC2=C(c3ccn(C(F)F)n3)[C@H](c3ccc(F)cc3Cl)N=C(c3nccs3)N2C1 [Example 316] | 0.1 to 0.4 µM
O=S(=O)(NCc1cnccn1)N[C@H]1CC2=C(c3ccn(C(F)F)n3)[C@H](c3ccc(F)cc3Cl)N=C(c3nccs3)N2C1 [Example 317] | < 0.1 µM
CC(C)(NS(=O)(=O)N[C@H]1CC2=C(c3ccn(C(F)F)n3)[C@H](c3ccc(F)cc3Cl)N=C(c3nccs3)N2C1)c1ccccn1 [Example 318] | < 0.1 µM
CCCCS(=O)(=O)N[C@H]1CC2=C(c3ccn(C(F)F)n3)[C@H](c3ccc(F)cc3Cl)N=C(c3nccs3)N2C1 [Example 319] | < 0.1 µM
O=S(=O)(Nc1ccccn1)N[C@H]1CC2=C(c3ccn(C(F)F)n3)[C@H](c3ccc(F)cc3Cl)N=C(c3nccs3)N2C1 [Example 320] | 0.1 to 0.4 µM
O=S(=O)(N[C@H]1CC2=C(c3ccn(C(F)F)n3)[C@H](c3ccc(F)cc3Cl)N=C(c3nccs3)N2C1)NC1(c2ccccn2)CC1 [Example 321] | < 0.1 µM
O=C(N[C@H]1CC2=C(c3ccn(C(F)F)n3)[C@H](c3ccc(F)cc3Cl)N=C(c3nccs3)N2C1)C1(c2ccccn2)CC1 [Example 322] | 0.1 to 0.4 µM
O=S(=O)(N[C@H]1CC2=C(c3ccn(C(F)F)n3)[C@H](c3ccc(F)cc3Cl)N=C(c3nccs3)N2C1)NC1(Cc2ccccn2)CC1 [Example 325] | 0.1 to 0.4 µM
O=C(Cc1ccccn1)N[C@H]1CC2=C(c3ccn(C(F)F)n3)[C@H](c3ccc(F)cc3Cl)N=C(c3nccs3)N2C1 [Example 326] | 0.1 to 0.4 µM

SMILES | EC50
O=C(Nc1ccccn1)OCCCS(=O)(=O)N[C@H]1CC2=C(c3ccn(C(F)F)n3)[C@H](c3ccc(F)cc3Cl)N=C(c3nccs3)N2C1 [Example 327] | < 0.1 µM
CS(=O)(=O)CCS(=O)(=O)N[C@H]1CC2=C(c3ccn(C(F)F)n3)[C@H](c3ccc(F)cc3Cl)N=C(c3nccs3)N2C1 [Example 328] | < 0.1 µM
CS(=O)(=O)CCCS(=O)(=O)N[C@H]1CC2=C(c3ccn(C(F)F)n3)[C@H](c3ccc(F)cc3Cl)N=C(c3nccs3)N2C1 [Example 329] | < 0.1 µM
Fc1ccc([C@@H]2N=C(c3nccs3)N3C[C@@H](Nc4ccc(-c5ccccn5)cc4)CC3=C2c2ccn(C(F)F)n2)c(Cl)c1 [Example 330] | 0.1 to 0.4 µM
Fc1ccc([C@@H]2N=C(c3nccs3)N3C[C@@H](Nc4cccc(-c5ccccn5)c4)CC3=C2c2ccn(C(F)F)n2)c(Cl)c1 [Example 331] | 0.1 to 0.4 µM
O=Cc1cccc(S(=O)(=O)N[C@H]2CC3=C(c4ccn(C(F)F)n4)[C@H](c4ccc(F)cc4Cl)N=C(c4nccs4)N3C2)c1 [Example 333] | < 0.1 µM
O=S(=O)(NC(CO)c1ccccn1)N[C@H]1CC2=C(c3ccn(C(F)F)n3)[C@H](c3ccc(F)cc3Cl)N=C(c3nccs3)N2C1 (stereo partly shown) [Example 338] | < 0.1 µM
CC(C)[C@@H](NS(=O)(=O)N[C@H]1CC2=C(c3ccn(C(F)F)n3)[C@H](c3ccc(F)cc3Cl)N=C(c3nccs3)N2C1)c1ccccn1 [Example 341] | 0.1 to 0.4 µM
CCOC(=O)C(NS(=O)(=O)N[C@H]1CC2=C(c3ccn(C(F)F)n3)[C@H](c3ccc(F)cc3Cl)N=C(c3nccs3)N2C1)c1ccccn1 (stereo partly shown) [Example 343] | < 0.1 µM
CS(=O)(=O)NCCS(=O)(=O)N[C@H]1CC2=C(c3ccn(C(F)F)n3)[C@H](c3ccc(F)cc3Cl)N=C(c3nccs3)N2C1 [Example 344] | 0.1 to 0.4 µM
CS(=O)(=O)CC(NS(=O)(=O)N[C@H]1CC2=C(c3ccn(C(F)F)n3)[C@H](c3ccc(F)cc3Cl)N=C(c3nccs3)N2C1)c1ccccn1 (stereo partly shown) [Example 345] | < 0.1 µM
O=S(=O)(Nc1ccc(-c2ccccn2)cc1)N[C@H]1CC2=C(c3ccn(C(F)F)n3)[C@H](c3ccc(F)cc3Cl)N=C(c3nccs3)N2C1 [Example 346] | < 0.1 µM
CS(=O)(=O)c1ccc(NS(=O)(=O)N[C@H]2CC3=C(c4ccn(C(F)F)n4)[C@H](c4ccc(F)cc4Cl)N=C(c4nccs4)N3C2)cc1 [Example 347] | 0.1 to 0.4 µM
O=S(=O)(Nc1ccc(C(O)c2ccccn2)cc1)N[C@H]1CC2=C(c3ccn(C(F)F)n3)[C@H](c3ccc(F)cc3Cl)N=C(c3nccs3)N2C1 (stereo partly shown) [Example 348] | < 0.1 µM
CS(=O)(=O)Nc1ccc(NS(=O)(=O)N[C@H]2CC3=C(c4ccn(C(F)F)n4)[C@H](c4ccc(F)cc4Cl)N=C(c4nccs4)N3C2)cc1 [Example 349] | < 0.1 µM
O=S(=O)(NCCCc1ccccn1)N[C@H]1CC2=C(c3ccn(C(F)F)n3)[C@H](c3ccc(F)cc3Cl)N=C(c3nccs3)N2C1 [Example 350] | 0.1 to 0.4 µM
CC[C@H](NS(=O)(=O)N[C@H]1CC2=C(c3ccn(C(F)F)n3)[C@H](c3ccc(F)cc3Cl)N=C(c3nccs3)N2C1)c1ccccn1 [Example 351] | < 0.1 µM
CC[C@@H](NS(=O)(=O)N[C@H]1CC2=C(c3ccn(C(F)F)n3)[C@H](c3ccc(F)cc3Cl)N=C(c3nccs3)N2C1)c1ccccn1 [Example 352] | 0.1 to 0.4 µM
O=S(=O)(N[C@H]1CC2=C(c3ccn(C(F)F)n3)[C@H](c3ccc(F)cc3Cl)N=C(c3nccs3)N2C1)N[C@@H](c1ccccn1)C1CC1 [Example 354] | 0.1 to 0.4 µM
CCOC(=O)CC(NS(=O)(=O)N[C@H]1CC2=C(c3ccn(C(F)F)n3)[C@H](c3ccc(F)cc3Cl)N=C(c3nccs3)N2C1)c1ccccn1 (stereo partly shown) [Example 355] | 0.1 to 0.4 µM
O=C(O)CC(NS(=O)(=O)N[C@H]1CC2=C(c3ccn(C(F)F)n3)[C@H](c3ccc(F)cc3Cl)N=C(c3nccs3)N2C1)c1ccccn1 (stereo partly shown) [Example 356] | 0.1 to 0.4 µM
CC(C)C[C@@H](NS(=O)(=O)N[C@H]1CC2=C(c3ccn(C(F)F)n3)[C@H](c3ccc(F)cc3Cl)N=C(c3nccs3)N2C1)c1ccccn1 [Example 360] | 0.1 to 0.4 µM
O=S(=O)(N[C@H]1CC2=C(c3ccn(C(F)F)n3)[C@H](c3ccc(F)cc3Cl)N=C(c3nccs3)N2C1)c1cccc(Br)n1 [Example 366] | < 0.1 µM
O=C(CC1(S(=O)(=O)N[C@H]2CC3=C(c4ccn(C(F)F)n4)[C@H](c4ccc(F)cc4Cl)N=C(c4nccs4)N3C2)CC1)NCc1ccccn1 [Example 372] | < 0.1 µM
C[C@@H](NC(=O)CC1(S(=O)(=O)N[C@H]2CC3=C(c4ccn(C(F)F)n4)[C@H](c4ccc(F)cc4Cl)N=C(c4nccs4)N3C2)CC1)c1ccccn1 [Example 373] | < 0.1 µM
C[C@H](NC(=O)CC1(S(=O)(=O)N[C@H]2CC3=C(c4ccn(C(F)F)n4)[C@H](c4ccc(F)cc4Cl)N=C(c4nccs4)N3C2)CC1)c1ccccn1 [Example 374] | < 0.1 µM
O=S1(=O)CCCN1[C@H]1CC2=C(c3ccn(C(F)F)n3)[C@H](c3ccc(F)cc3Cl)N=C(c3nccs3)N2C1 [Example 375] | 0.1 to 0.4 µM
